Results published in ChEMBL document CHEMBL4017459, “Synthesis and anti-inflammatory evaluation of N-sulfonyl anthranilic acids via Ir(III)-catalyzed C-H amidation of benzoic acids” (2017).

Columns and labels:
Format in all cases: functional
RAW264.7 [1] = assay: Anti-inflammatory activity in mouse RAW264.7 cells assessed as inhibition of LPS-induced Il-1beta secretion measured after 24 hrs by Western blot analysis relatively to control
RAW264.7 [2] = assay: Anti-inflammatory activity in mouse RAW264.7 cells assessed as inhibition of LPS-induced COX-2 expression measured after 24 hrs by Western blot analysis relatively to control
RAW264.7 [3] = assay: Potency index, ratio of ibuprofen to test compound for anti-inflammatory activity in mouse RAW264.7 cells assessed as inhibition of LPS-induced IL-beta secretion

Compound	inhibition (INH) (RAW264.7 [1]) [%]	inhibition (INH) (RAW264.7 [2]) [%]	Ratio (RAW264.7 [3])
Cc1ccc(S(=O)(=O)Nc2cccc(NS(=O)(=O)c3ccc(C)cc3)c2C(=O)O)cc1	-21	22	–
Cc1ccc(S(=O)(=O)Nc2ccc(C)cc2C(=O)O)cc1	20	49	–
Cc1cccc(NS(=O)(=O)c2ccc3ccccc3c2)c1C(=O)O	6	33	–
Cc1cccc(NS(=O)(=O)c2ccc(Br)cc2)c1C(=O)O	98	36	–
Cc1ccc(S(=O)(=O)Nc2cccc(F)c2C(=O)O)cc1	82	3	1.5 - 2.5
Cc1cccc(NS(=O)(=O)c2ccc([N+](=O)[O-])cc2)c1C(=O)O	66	67	1.5 - 2.5
Cc1ccc(S(=O)(=O)Nc2cccc([N+](=O)[O-])c2C(=O)O)cc1	81	-1	1.5 - 2.5
Cc1cccc(NS(=O)(=O)c2ccccc2)c1C(=O)O	52	22	–
COc1ccc(NS(=O)(=O)c2ccc(C)cc2)c(C(=O)O)c1NS(=O)(=O)c1ccc(C)cc1	-21	34	–
Cc1ccc(S(=O)(=O)Nc2cccc(Br)c2C(=O)O)cc1	42	18	–
COc1cccc(NS(=O)(=O)c2ccc(C)cc2)c1C(=O)O	66	51	1.5 - 2.5
Cc1cccc(NS(=O)(=O)c2ccc(C(F)(F)F)cc2)c1C(=O)O	54	55	–
Cc1ccc(S(=O)(=O)Nc2ccc3ccccc3c2C(=O)O)cc1	9	34	–
Cc1cccc(NS(=O)(=O)c2ccccc2F)c1C(=O)O	35	42	–
Cc1ccc(S(=O)(=O)Nc2cc(C)cc(C)c2C(=O)O)cc1	45	52	–
COc1ccc(S(=O)(=O)Nc2cccc(C)c2C(=O)O)cc1	88	51	–
Cc1ccc(S(=O)(=O)Nc2cccc(Cl)c2C(=O)O)cc1	45	-4	–
Cc1ccc(S(=O)(=O)Nc2cccc(C(F)(F)F)c2C(=O)O)cc1	21	69	–
Cc1ccc(S(=O)(=O)Nc2cccc(C)c2C(=O)O)cc1	37	72	–
Cc1ccc(S(=O)(=O)Nc2cc(C)cc(NS(=O)(=O)c3ccc(C)cc3)c2C(=O)O)cc1	66	-8	1.5 - 2.5
CC(C)Cc1ccc(C(C)C(=O)O)cc1 (configuration not stated) [IBUPROFEN]	35	54	–
